Assay results reported in PubChem BioAssay (NCI).
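Cultured in 96-well plates, cells were exposed to test compound for 48 hours across five concentrations. At the TGI there is no net growth.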

Legend:
Assay in all cases: NCI anticancer screen, dose series, 48 h
786-0 renal = test system: 786-0 renal
A498 renal = test system: A498 renal
A549 NSCLC = test system: A549 NSCLC
ACHN renal = test system: ACHN renal
BT-549 breast = test system: BT-549 breast
CAKI-1 renal = test system: CAKI-1 renal
CCRF-CEM leukemia = test system: CCRF-CEM leukemia
COLO 205 colon = test system: COLO 205 colon
DU-145 prostate = test system: DU-145 prostate
EKVX NSCLC = test system: EKVX NSCLC
HCC-2998 colon = test system: HCC-2998 colon
HCT-116 colon = test system: HCT-116 colon
HCT-15 colon = test system: HCT-15 colon
HL-60(TB) leukemia = test system: HL-60(TB) leukemia
HOP-62 NSCLC = test system: HOP-62 NSCLC
HOP-92 NSCLC = test system: HOP-92 NSCLC
HT29 colon = test system: HT29 colon
K-562 leukemia = test system: K-562 leukemia
KM12 colon = test system: KM12 colon
M14 melanoma = test system: M14 melanoma
MALME-3M melanoma = test system: MALME-3M melanoma
MCF7 breast = test system: MCF7 breast
MDA-MB-231 breast = test system: MDA-MB-231 breast
MDA-MB-435 = test system: MDA-MB-435
MDA-N = test system: MDA-N
MOLT-4 leukemia = test system: MOLT-4 leukemia
NCI-H226 lung = test system: NCI-H226 lung
NCI-H23 lung = test system: NCI-H23 lung
NCI-H460 lung = test system: NCI-H460 lung
NCI-H522 lung = test system: NCI-H522 lung
NCI/ADR-RES ovarian = test system: NCI/ADR-RES ovarian
OVCAR-3 ovarian = test system: OVCAR-3 ovarian
OVCAR-4 ovarian = test system: OVCAR-4 ovarian
OVCAR-5 ovarian = test system: OVCAR-5 ovarian
OVCAR-8 ovarian = test system: OVCAR-8 ovarian
PC-3 prostate = test system: PC-3 prostate
RPMI-8226 leukemia = test system: RPMI-8226 leukemia
RXF 393 renal = test system: RXF 393 renal
SF-268 CNS = test system: SF-268 CNS
SF-295 CNS = test system: SF-295 CNS
SF-539 CNS = test system: SF-539 CNS
SK-MEL-2 melanoma = test system: SK-MEL-2 melanoma
SK-MEL-28 melanoma = test system: SK-MEL-28 melanoma
SK-OV-3 ovarian = test system: SK-OV-3 ovarian
SN12C renal = test system: SN12C renal
SNB-19 CNS = test system: SNB-19 CNS
SNB-75 CNS = test system: SNB-75 CNS
SR leukemia = test system: SR leukemia
SW-620 colon = test system: SW-620 colon
T-47D breast = test system: T-47D breast
U251 CNS = test system: U251 CNS
UACC-257 melanoma = test system: UACC-257 melanoma
UACC-62 melanoma = test system: UACC-62 melanoma
UO-31 renal = test system: UO-31 renal
TK-10 renal = test system: TK-10 renal
IGROV1 ovarian = test system: IGROV1 ovarian
LOX IMVI melanoma = test system: LOX IMVI melanoma
SK-MEL-5 melanoma = test system: SK-MEL-5 melanoma

Cc1cc2c(O)c(c1)COCc1cc(C)cc(c1O)COCc1cc(C)cc(c1O)COC2
TGI (786-0 renal): > 100 µM | TGI (A498 renal): > 100 µM | TGI (A549 NSCLC): > 100 µM | TGI (ACHN renal): > 100 µM | TGI (BT-549 breast): > 100 µM | TGI (CAKI-1 renal): > 100 µM | TGI (CCRF-CEM leukemia): > 100 µM | TGI (COLO 205 colon): > 100 µM | TGI (DU-145 prostate): > 100 µM | TGI (EKVX NSCLC): > 100 µM | TGI (HCC-2998 colon): > 100 µM | TGI (HCT-116 colon): > 100 µM | TGI (HCT-15 colon): > 100 µM | TGI (HL-60(TB) leukemia): > 100 µM | TGI (HOP-62 NSCLC): > 100 µM | TGI (HOP-92 NSCLC): > 100 µM | TGI (HT29 colon): > 100 µM | TGI (K-562 leukemia): > 100 µM | TGI (KM12 colon): > 100 µM | TGI (M14 melanoma): > 100 µM | TGI (MALME-3M melanoma): > 100 µM | TGI (MCF7 breast): > 100 µM | TGI (MDA-MB-231 breast): > 100 µM | TGI (MDA-MB-435): > 100 µM | TGI (MDA-N): > 100 µM | TGI (MOLT-4 leukemia): > 100 µM | TGI (NCI-H226 lung): > 100 µM | TGI (NCI-H23 lung): > 100 µM | TGI (NCI-H460 lung): > 100 µM | TGI (NCI-H522 lung): > 100 µM | TGI (NCI/ADR-RES ovarian): > 100 µM | TGI (OVCAR-3 ovarian): > 100 µM | TGI (OVCAR-4 ovarian): > 100 µM | TGI (OVCAR-5 ovarian): > 100 µM | TGI (OVCAR-8 ovarian): > 100 µM | TGI (PC-3 prostate): > 100 µM | TGI (RPMI-8226 leukemia): > 100 µM | TGI (RXF 393 renal): > 100 µM | TGI (SF-268 CNS): > 100 µM | TGI (SF-295 CNS): > 100 µM | TGI (SF-539 CNS): > 100 µM | TGI (SK-MEL-2 melanoma): > 100 µM | TGI (SK-MEL-28 melanoma): > 100 µM | TGI (SK-OV-3 ovarian): > 100 µM | TGI (SN12C renal): > 100 µM | TGI (SNB-19 CNS): > 100 µM | TGI (SNB-75 CNS): > 100 µM | TGI (SR leukemia): > 100 µM | TGI (SW-620 colon): > 100 µM | TGI (T-47D breast): > 100 µM | TGI (U251 CNS): > 100 µM | TGI (UACC-257 melanoma): > 100 µM | TGI (UACC-62 melanoma): > 100 µM | TGI (UO-31 renal): > 100 µM

NC(=S)N/N=C1\CCCCc2ccccc21
TGI (786-0 renal): > 10 µM | TGI (A549 NSCLC): > 10 µM | TGI (ACHN renal): > 10 µM | TGI (BT-549 breast): > 10 µM | TGI (CAKI-1 renal): > 10 µM | TGI (CCRF-CEM leukemia): > 10 µM | TGI (COLO 205 colon): > 10 µM | TGI (DU-145 prostate): > 10 µM | TGI (EKVX NSCLC): > 10 µM | TGI (HCC-2998 colon): > 10 µM | TGI (HCT-116 colon): > 10 µM | TGI (HCT-15 colon): > 10 µM | TGI (HL-60(TB) leukemia): > 10 µM | TGI (HOP-62 NSCLC): > 10 µM | TGI (HT29 colon): > 10 µM | TGI (K-562 leukemia): > 10 µM | TGI (KM12 colon): > 10 µM | TGI (M14 melanoma): > 10 µM | TGI (MALME-3M melanoma): > 10 µM | TGI (MCF7 breast): > 10 µM | TGI (MDA-MB-435): > 10 µM | TGI (MDA-N): > 10 µM | TGI (MOLT-4 leukemia): > 10 µM | TGI (NCI-H226 lung): > 10 µM | TGI (NCI-H23 lung): > 10 µM | TGI (NCI-H460 lung): > 10 µM | TGI (NCI-H522 lung): > 10 µM | TGI (NCI/ADR-RES ovarian): > 10 µM | TGI (OVCAR-3 ovarian): > 10 µM | TGI (OVCAR-4 ovarian): > 10 µM | TGI (OVCAR-5 ovarian): > 10 µM | TGI (OVCAR-8 ovarian): > 10 µM | TGI (PC-3 prostate): > 10 µM | TGI (RPMI-8226 leukemia): > 10 µM | TGI (RXF 393 renal): > 10 µM | TGI (SF-268 CNS): > 10 µM | TGI (SF-295 CNS): > 10 µM | TGI (SK-MEL-2 melanoma): > 10 µM | TGI (SN12C renal): > 10 µM | TGI (SNB-19 CNS): > 10 µM | TGI (SR leukemia): > 10 µM | TGI (SW-620 colon): > 10 µM | TGI (T-47D breast): > 10 µM | TGI (TK-10 renal): > 10 µM | TGI (U251 CNS): > 10 µM | TGI (UACC-257 melanoma): > 10 µM | TGI (UO-31 renal): > 10 µM

O=C(CSc1nnc(SCC(=O)NN=C2CCCCC2)s1)NN=C1CCCCC1
TGI (786-0 renal): > 100 µM | TGI (A498 renal): > 100 µM | TGI (A549 NSCLC): > 100 µM | TGI (ACHN renal): > 100 µM | TGI (BT-549 breast): > 100 µM | TGI (CAKI-1 renal): > 100 µM | TGI (CCRF-CEM leukemia): > 100 µM | TGI (COLO 205 colon): > 100 µM | TGI (DU-145 prostate): > 100 µM | TGI (EKVX NSCLC): > 100 µM | TGI (HCC-2998 colon): > 100 µM | TGI (HCT-116 colon): > 100 µM | TGI (HCT-15 colon): > 100 µM | TGI (HOP-62 NSCLC): > 100 µM | TGI (HOP-92 NSCLC): > 100 µM | TGI (HT29 colon): > 100 µM | TGI (IGROV1 ovarian): > 100 µM | TGI (K-562 leukemia): > 100 µM | TGI (KM12 colon): > 100 µM | TGI (LOX IMVI melanoma): > 100 µM | TGI (M14 melanoma): > 100 µM | TGI (MALME-3M melanoma): > 100 µM | TGI (MCF7 breast): > 100 µM | TGI (MDA-MB-231 breast): > 100 µM | TGI (MDA-MB-435): > 100 µM | TGI (MDA-N): > 100 µM | TGI (MOLT-4 leukemia): > 100 µM | TGI (NCI-H226 lung): > 100 µM | TGI (NCI-H23 lung): > 100 µM | TGI (NCI-H460 lung): > 100 µM | TGI (NCI-H522 lung): > 100 µM | TGI (NCI/ADR-RES ovarian): > 100 µM | TGI (OVCAR-3 ovarian): > 100 µM | TGI (OVCAR-4 ovarian): > 100 µM | TGI (OVCAR-5 ovarian): > 100 µM | TGI (OVCAR-8 ovarian): > 100 µM | TGI (PC-3 prostate): > 100 µM | TGI (RPMI-8226 leukemia): > 100 µM | TGI (RXF 393 renal): > 100 µM | TGI (SF-268 CNS): > 100 µM | TGI (SF-295 CNS): > 100 µM | TGI (SF-539 CNS): > 100 µM | TGI (SK-MEL-28 melanoma): > 100 µM | TGI (SK-MEL-5 melanoma): > 100 µM | TGI (SK-OV-3 ovarian): > 100 µM | TGI (SN12C renal): > 100 µM | TGI (SNB-19 CNS): > 100 µM | TGI (SNB-75 CNS): > 100 µM | TGI (SR leukemia): > 100 µM | TGI (SW-620 colon): > 100 µM | TGI (T-47D breast): > 100 µM | TGI (TK-10 renal): > 100 µM | TGI (U251 CNS): > 100 µM | TGI (UACC-257 melanoma): > 100 µM | TGI (UACC-62 melanoma): > 100 µM | TGI (UO-31 renal): > 100 µM
